Source: patent US20260283983A1, “PHARMACEUTICAL COMPOSITIONS FOR WOUND CARE” (BIO PROTECTANT TECHNOLOGIES, INC., priority 2023, published 2026)
Converted amounts (≈) assume the structure as drawn. Where a SMILES comes first, the peptide text is derived from it. Bridges are numbered along the chain shown (N, C = ends). [ ]: non-standard residue; d: D form. The star is where a group is joined. Ileψ(thiazoline)Cys = CC[C@H](C)[C@H](N)C1=N[C@H](C(=O)*)CS1; dOrn = NCCC[C@@H](N)C(=O)O

Assays:
[1] = tested on: S. mutans; experiment: S. mutans quantitative biofilm reduction assay; type: cell-based; conditions: same treatment concentration; FIG. 6A-6C
Procedure: • Day 1: O/N culture of S. mutans • Day 2: Dilute O/N culture 1:9 in BHI • Place discs in 2 mL diluted culture and incubate 24 h • Day 3 Transfer discs to 2 mL BMGS (culture in BMGS for 1-3 days) • Day 4 1-Day: Transfer discs to 2 mL sterilants for desired incubation time • Transfer discs back to 2 mL BMGS for 24 h • 2-Day: Transfer discs to 2 mL BMGS and incubate for another 24 h • Day 5 1-Day: Sonicate disc and plate 100 μL of different dilutions • 2-Day: Transfer discs to 2 mL sterilants for desired incubation time • Transfer discs back to 2 mL BMGS for 24 h • Day 6 1-Day: Count plates • 2-Day: Sonicate disc and plate 100 μL of different dilutions • Day 7 Count plates

[2] = tested on: bioluminescent MRSA (CA-MRSA); experiment: Murine model of wound healing (biopsy punch) infected with bioluminescent MRSA; type: in vivo; conditions: mice infected with 1×10^5 CFU bioluminescent MRSA; 20 μL topically three times daily; two week period; FIG. 1A
Procedure: An exemplary formulation (Formulation A) was tested in the murine model of wound healing (Dunn, Louise, et al. “Murine model of wound healing.” Journal of Visualized Experiments. 75 (2013): e50265-e50265).
• Biopsy punch model performed • Infected with 1×10^5 CFUs bioluminescent MRSA
Wound was imaged then treated with Formulation A
The animals were treated topically with 20 μL of Formulation A, bacitracin, or vehicle three times daily and imaged
The animals were imaged, weight, and their wound was measured daily
The animals were sacrificed and the bacterial burdens were checked in the wound, the liver, the spleen, and the blood.
Tracking of infection and wound healing in mice infected with 1×10^5 CFU bioluminescent MRSA and treated with 20 μL Formulation A, bacitracin (positive control), or vehicle control (N=5 for each treatment group). FIG. 1A: average radiance in the wound bed detected over a two week period. […] Statistical analysis was conducted in GraphPad Prism 6 using a two-way ANOVA test: ***p<0.001; ****p<0.0001. FIG. 1B: box and whisker plots of the wound area over time, beginning on day 4 after the removal of the surgical wound dressing. […] FIG. 1C: plot of the change in weight through the duration of infection and treatment.

[3] = tested on: S. aureus ATCC 6538; experiment: MIC and MBC determination, S. aureus ATCC 6538; type: cell-based; conditions: Staphylococcus aureus
Source text: (§1) The MIC and MBC of Formulation B was initially determined using a panel of S. aureus strains (Table 1) including laboratory S. aureus ATCC 6538, bioluminescent S. aureus strain Newman, bioluminescent CA-MRSA strain MW2, and a MRSA clinical isolate.

[4] = tested on: Bioluminescent S. aureus strain Newman; experiment: MIC and MBC determination, bioluminescent S. aureus strain Newman; type: cell-based; conditions: Staphylococcus aureus
Source text: as §1

[5] = tested on: Bioluminescent CA-MRSA strain MW2; experiment: MIC and MBC determination, bioluminescent CA-MRSA strain MW2; type: cell-based, S. aureus; conditions: Staphylococcus aureus
Source text: as §1

[6] = tested on: MRSA clinical isolate; experiment: MIC and MBC determination, MRSA clinical isolate; type: cell-based, S. aureus; conditions: Staphylococcus aureus
Source text: as §1

[7] = read-out: Minimum Bactericidal Concentration
[8] = read-out: Minimum Inhibitory Concentration

Compound | biofilm accumulation after treatment [1] | bacterial burden, average radiance in the wound bed [2] | MBC ([3]; ATCC6538, read-out: Minimum Bactericidal Concentration) [µg/mL] | MIC ([3]; ATCC6538, read-out: Minimum Inhibitory Concentration) [µg/mL] | MBC [4, 7] [µg/mL] | MIC [4, 8] [µg/mL] | MBC [5, 7] [µg/mL] | MIC [5, 8] [µg/mL] | MBC [6, 7] [µg/mL] | MIC [6, 8] [µg/mL]
CCCCCCCCCCCCC[N+](C)(C)Cc1ccccc1 [BAK, benzalkonium chloride] | approximate equivalence | – | – | – | – | – | – | – | – | –
CC[C@H](C)[C@H](N)C1=N[C@H](C(=O)N[C@@H](CC(C)C)C(=O)N[C@H](CCC(=O)O)C(=O)N[C@H](C(=O)N[C@H]2CCCCNC(=O)[C@H](CC(N)=O)NC(=O)[C@@H](CC(=O)O)NC(=O)[C@H](Cc3cnc[nH]3)NC(=O)[C@@H](Cc3ccccc3)NC(=O)[C@H]([C@@H](C)CC)NC(=O)[C@@H](CCCN)NC2=O)[C@@H](C)CC)CS1 [Bacitracin] ({Ileψ(thiazoline)Cys}-L[dE]IK[dOrn]I[dF]H[dD]N; lactam 4-C) | – | completely cleared infection within the first day | 67 (≈ 47.1 µM) | 67 (≈ 47.1 µM) | 333 (≈ 234 µM) | 67 (≈ 47.1 µM) | 333 (≈ 234 µM) | 67 (≈ 47.1 µM) | 67 (≈ 47.1 µM) | 67 (≈ 47.1 µM)
C12-C14 alkyl(ethylbenzyl)dimethylammonium chloride | approximate equivalence | – | – | – | – | – | – | – | – | –
